Results on eleven compounds are retold here after patent publication US8093301B2, “Anti-allergic agent” (Meiji Co., Ltd., priority 2005, dated 2012).

In brackets after ≈: the same amount, converted by molar mass. Several values for one entry are separate records, joined by “and”; a condition that tells them apart may be missing. Equal entries are not always repeated. Structures can show the parent of a compound that is named as a salt. Where two headings read alike, the source gives them in different places.

For assay [1], the system named is basophil-like cells (RBL-2H3). Conditions: Non-Patent Document 2; cited from earlier work.
In assay [2] the test system is basophil-like cells (RBL-2H3). Description: β-hexosaminidase release inhibition test (degranulation of IgE-sensitised, DNP-BSA-stimulated cells). Conditions: for IC50: read-out: 50% β-hexosaminidase release inhibitory concentration (IC50). Type of assay: cell-based. As to the method: In the Examples, the degree of cell degranulation was assessed through determination of β-hexosaminidase activity. In a specific procedure, basophil-like cells (RBL-2H3, Human Science Laboratory Resource Bank) were suspended in a Dulbecco's modified Eagle's medium (DMEM, product of Gibco) containing a 10% fetal calf serum, and the suspension was incubated overnight at 37° C. in a 96-well plate (2.5×10^5 cells/mL) in the presence of 0.1 μg/mL anti-dinitrophenyl (DNP)-IgE antibody (product of SIGMA).
The thus-treated basophil-like cells (RBL-2H3) were washed with phosphate buffer (PBS) and further incubated at 37° C. for 30 minutes in the presence of each test substance (Examples 1 to 6 and Comparative Examples 1 to 3) at a predetermined concentration. The concentrations at which incubation was performed were 0.1, 0.2, 0.3, 0.4, and 0.5 μM (ACNQ); 20, 30, 40, 60, and 80 μM (DHNA); 60, 70, 80, 90, and 100 μM (2-methyl-1,4-naphthoquinone (vitamin K3)); 10, 20, 30, 40, and 50 μM (4-amino-2-methyl-1-naphthol (vitamin K5)); 10, 20, 30, 40, and 50 μM (1,4-naphthoquinone); 3, 4, 5, 6, and 7 μM (2-amino-3-chloro-1,4-naphthoquinone); 50 and 100 μM (vitamin K1); 25, 50, and 100 μM (vitamin K2); and 50 and 100 μM (1,3-naphthalenediol).
The thus-incubated basophil-like cells (RBL-2H3) were washed with PBS, and further incubated at 37° C. for one hour in the presence of 1-μg/mL DNP-BSA (product of SSL). After completion of incubation, a supernatant was recovered from each well, and the activity of β-hexosaminidase contained in each supernatant was determined. The activity of β-hexosaminidase remaining in the cells was also determined through solubilizing the remaining cells with 0.1% polyoxyethylene(10)octylphenyl ether/DMEM.
Each of the thus-obtained supernatants and cell solubilized liquids was added to a 96-well plate (50 μL/well), and 2 mM p-nitrophenyl N-acetyl-β-D-glucosaminide (product of SIGMA) serving as a substrate was added thereto (50 μL/well). After incubation at 37° C. for two hours, a suppressor (1M Tris, pH: 9.0) was added thereto (150 μL/well), and the absorbance at 415 nm was measured by means of a plate reader. For assessing degranulation, percent β-hexosaminidase release (%) was calculated through the following formula: Percent β-hexosaminidase release (%)=100×(OD415 of supernatant)/(OD415 of supernatant+OD415 of solubilized cells).
The β-hexosaminidase activity of supernatant was determined as described above. The β-hexosaminidase activity of a supernatant of basophil-like cells (RBL-2H3) incubated in the presence of each of the test substances of Examples 1 to 6 and Comparative Examples 1 to 3) was measured, whereby 50% β-hexosaminidase release inhibitory concentration (IC50) was calculated.

The next assay relates to PCA reaction. Description: PCA reaction, Evans Blue leakage to ear auricles. Type of assay: in vivo. The settings on record: ICR mice, 100 μg/kg perorally one hour before PCA induction, compared with CMC sodium-administered group, P<0.05 t-test (FIG. 3). Here is the method: ICR mice (female, 6-week old) were preliminarily bred and grouped into the following three groups such that these groups had the same average body weight: Group 1, 0.5% carboxy-methyl-cellulose (CMC) sodium-administered group (Comparative Example 4); Group 2, ACNQ (100 μg/kg)-administered group (Example 7); and Group 3, PCA-non-induced group (Comparative Example 5). Groups 1 and 2 each included 8 mice, and Group 3 included 4 mice. Group 1 (CMC sodium-administered group) served as a control group with respect to Group 2 (ACNQ-administered group).
To each of the ICR mice of Groups 1 and 2, an anti-DNP-IgE antibody (100 ng/body) was intradermally administered through an ear auricle. Instead of the anti-DNP-IgE antibody, physiological saline was administered in a similar manner to each of the ICR mice of Group 3. […]
Subsequently, one hour after administration of each test substance, DNP-bound BSA (0.25 mg/body) serving as an antigen and Evans Blue were intravenously administered to each of the ICR mice of Groups 1 to 3, to thereby induce PCA. […] The absorbance of each extract at 620 nm was determined, to thereby calculate the Evans Blue level leaked to the ear auricle.

Setting [3] is: Rattus norvegicus, RBL-2H3, 0.5 h, RBL-2H3, 30 minutes incubation with test substance, DNP-BSA stimulation.
Setting [4] is: Rattus norvegicus, RBL-2H3, 0.5 h, RBL-2H3, same IC50 expressed in μg/mL.
[5] abbreviates: Rattus norvegicus, RBL-2H3, RBL-2H3, same IC50 expressed in μg/mL.
Where [6] appears, read: RBL-2H3, 30 minutes incubation with test substance, DNP-BSA stimulation.
Setting [7] is: RBL-2H3, same IC50 expressed in μg/mL.

On to `COc1ccc(C=CC(=O)Nc2ccccc2C(=O)O)cc1OC` [tranilast, N-(3,4-dimethoxycinnamoyl)anthranilic acid], for which, in assay [1], the IC50 is 492 µM and the “IC50 to basophil-like cells (RBL-2H3)” value is 161 µg/mL (≈ 492 µM).
As for `O=C1C=CC(=O)c2ccccc21` [1,4-Naphthoquione, 1,4-naphthoquinone], the IC50 was about 30 µM in assay [2] (setting [3]), 4.7 µg/mL in assay [2] (setting [4]) and 4.7 µg/mL in assay [2] (setting [5]).
With `Oc1cc(O)c2ccccc2c1` [1,3-Naphthalenediol, 1,3-naphthalenediol, reference compound], in assay [2] (Rattus norvegicus, RBL-2H3, 0.5 h), the IC50 is > 100 µM and > 16 µg/mL.
As for “menaquinone [Vitamin K2, reference compound]”, in assay [2] (setting [6]), the IC50 is over 100 µM. In assay [2] (setting [7]), the “50% β-hexosaminidase release inhibitory concentration (IC50)” value was “(>44 μg/mL)”.
On to `CC1=CC(=O)c2ccccc2C1=O` [Vitamin K3, 2-methyl-1,4-naphthoquinone], for which the IC50 is about 50 µM in assay [2] (setting [3]), 11.5 µg/mL in assay [2] (setting [4]) and 11.5 µg/mL in assay [2] (setting [5]).
Regarding `CN1CCC(=C2c3ccccc3CC(=O)c3sccc32)CC1` [ketotifen fumarate, 4-(1-methyl-4-piperidylidene-4H-benzo[4,5]-cyclohepta[1,2-b]-thiophen-10(9H)-one hydrogen fumarate], in assay [1], the IC50 was 214 µM and the “IC50 to basophil-like cells (RBL-2H3)” value is 91 µg/mL.
With `NC1=C(Cl)C(=O)c2ccccc2C1=O` [2-Amino-3-chloro-1,4-naphthoquinone, 2-amino-3-chloro-1,4-naphthoquinone], the IC50 turned out to be 6.8 µM in assay [2] (setting [3]), 1.4 µg/mL in assay [2] (setting [4]) and 1.4 µg/mL in assay [2] (setting [5]).
As for `O=C(O)c1cc(O)c2ccccc2c1O` [DHNA, 1,4-dihydroxy-2-naphthoic acid], in assay [2] (DHNA concentration ≧60 μM (FIG. 2)), the “percent β-hexosaminidase release, relative to that of sample containing no test substance (0 μM)” value was “about 20%”. Besides, the IC50 was about 50 µM in assay [2] (setting [3]), 8.2 µg/mL in assay [2] (setting [4]) and 8.2 µg/mL in assay [2] (setting [5]).
Take `CC1=C(C/C=C(\C)CCC[C@H](C)CCC[C@H](C)CCCC(C)C)C(=O)c2ccccc2C1=O` [Vitamin K1, phylloquione, reference compound]: the IC50 in assay [2] (setting [6]) was over 100 µM. For the same compound, the “50% β-hexosaminidase release inhibitory concentration (IC50)” value in assay [2] (setting [7]) was “(>45.1 μg/mL)”.
`NC1=C(C(=O)O)C(=O)c2ccccc2C1=O` [ACNQ, 2-amino-3-carboxy-1,4-naphthoquinone]: the “percent β-hexosaminidase release, relative to that of sample containing no test substance (0 μM)” value in assay [2] (ACNQ concentration ≧0.4 μM (FIG. 1)) was “about 20%”. Besides, the IC50 in assay [2] (setting [3]) was 0.25 µM; in assay [2] (setting [4]) it was 0.0545 µg/mL; in assay [2] (setting [5]), 0.0545 µg/mL. Besides, the “Evans Blue level leaked to the ear auricle” value in the assay with PCA reaction is on record as “significantly lowered”.
On to `Cc1cc(N)c2ccccc2c1O` [Vitamin K5, 4-amino-2-methyl-1-naphthol], for which the IC50 in assay [2] (setting [3]) was about 30 µM; in assay [2] (setting [4]), 6.1 µg/mL; in assay [2] (setting [5]) it was 6.1 µg/mL.
